{"source": "patent US9072297B2", "about": "“Herbicidal composition” (ISHIHARA SANGYO KAISHA, LTD., priority 2010, dated 2015)", "format_in_all_cases": "in vivo", "key": {"[1]": {"system": "surinam grass (Brachiaria decumbens Stapf.)", "experiment": "Test Example 2: foliar application pot test, surinam grass", "details": "Urochloa decumbens, read-out: Growth inhibition rate (%) of surinam grass Measured value", "procedure": "(§1) Growth inhibition rate (%)= • 0:equivalent to the non-treated area to 100:complete kill\n(§2) Upland field soil was put into a 1/1,000,000 ha pot, and seeds of surinam grass (Brachiaria decumbens Stapf.) were sown. When the surinam grass reached 2.8 to 3.2 leaf stage, a predetermined amount of each herbicidal composition was diluted with water (corresponding to 200 L/ha) containing 0.25 vol % of an agricultural adjuvant (tradename: Agral, manufactured by Syngenta) and applied by foliar application with a small sprayer.\n(§3) On the 28th day after application, the state of growth of the plant was visually observed."}, "[2]": {"system": "field bindweed (Convolvulus arvensis L.)", "experiment": "Test Example 4: soil application pot test, field bindweed", "details": "read-out: Growth inhibition rate (%) of field bindweed Measured value", "procedure": "as §1\n(§4) Upland field soil was put into a 1/1,000,000 ha pot, and seeds of field bindweed (Convolvulus arvensis L.) were sown. On the day after application, a predetermined amount of each herbicidal composition was diluted with water corresponding to 200 L/ha and applied by soil application with a small sprayer.\n(§5) On the 42nd day after application, the state of growth of the plant was visually observed."}, "[3]": {"system": "crabgrass (Digitaria ciliaris (Retz.) Koel)", "experiment": "Test Example 6: foliar application pot test, crabgrass 3.8 to 4.0 leaf stage", "details": "read-out: Growth inhibition rate (%) of crabgrass Measured value", "procedure": "as §1\nas §2, with “crabgrass (Digitaria ciliaris (Retz.) Koel)” for “surinam grass (Brachiaria decumbens Stapf.)”, “crabgrass” for “the surinam grass”, “3.8” for “2.8”, “4.0” for “3.2”\nas §3"}, "[4]": {"system": "guineagrass (Panicum maximum Jacq.)", "experiment": "Test Example 1: foliar application pot test, guineagrass", "details": "Megathyrsus maximus, read-out: Growth inhibition rate (%) of guineagrass Measured value", "procedure": "as §2, with “various plants” for “surinam grass (Brachiaria decumbens Stapf.)”, “plants” for “surinam grass”, “certain leaf stages (guineagrass (Panicum maximum Jacq.): 4.5” for “2.8”, “5.0” for “3.2”, “stage, crabgrass (Digitaria ciliaris (Retz.) Koel): 3.0 to 4.2 leaf stage),” for “stage,”\n(§6) On the 28th day after application, the state of growth of the plants were visually observed and evaluated in accordance with the following evaluation standard. The growth inhibition rate (%) (measured value) and the growth inhibition rate (%) (calculated value) calculated by the Colby's formula are shown in Tables 1 and 2.\nas §1"}, "[5]": {"system": "crabgrass (Digitaria ciliaris (Retz.) Koel)", "experiment": "Test Example 1: foliar application pot test, crabgrass", "details": "read-out: Growth inhibition rate (%) of crabgrass Measured value", "procedure": "as §2, with “various plants” for “surinam grass (Brachiaria decumbens Stapf.)”, “plants” for “surinam grass”, “certain leaf stages (guineagrass (Panicum maximum Jacq.): 4.5” for “2.8”, “5.0” for “3.2”, “stage, crabgrass (Digitaria ciliaris (Retz.) Koel): 3.0 to 4.2 leaf stage),” for “stage,”\nas §6, §1"}, "[6]": {"system": "surinam grass (Brachiaria decumbens Stapf.)", "experiment": "Test Example 3: soil application pot test, surinam grass", "details": "Urochloa decumbens, read-out: Growth inhibition rate (%) of surinam grass Measured value", "procedure": "as §1\nas §4, with “surinam grass (Brachiaria decumbens Stapf.)” for “field bindweed (Convolvulus arvensis L.)”\nas §5"}, "[7]": {"system": "crabgrass (Digitaria ciliaris (Retz.) Koel)", "experiment": "Test Example 5: foliar application pot test, crabgrass (MonFast adjuvant)", "details": "read-out: Growth inhibition rate (%) of crabgrass Measured value", "procedure": "as §1\n(§7) Upland field soil was put into a 1/1,000,000 ha pot, and seeds of crabgrass (Digitaria ciliaris (Retz.) Koel) were sown. When crabgrass reached 3.0 to 4.2 leaf stage, a predetermined amount of each herbicidal composition was diluted with water (corresponding to 200 L/ha) containing 0.2 vol % of an agricultural adjuvant (tradename: MonFast, manufactured by Monsanto) and applied by foliar application with a small sprayer.\nas §3"}, "[8]": {"system": "crabgrass (Digitaria ciliaris (Retz.) Koel)", "experiment": "Test Example 7: foliar application pot test, crabgrass 4.5 leaf stage", "details": "read-out: Growth inhibition rate (%) of crabgrass Measured value; for inhibition at 300 g/ha: foliar", "procedure": "as §1\nas §7, with “4.5” for “3.0 to 4.2”, “0.25” for “0.2”, “Agral,” for “MonFast,”, “Syngenta)” for “Monsanto)”\nas §3"}}, "data": [{"smiles": "CN(C)C(=O)Nc1ccc(Cl)c(Cl)c1", "note": "[Diuron, 3-(3,4-dichlorophenyl)-1,1-dimethylurea]", "values": [{"measurement": "inhibition at 1250 g/ha", "setting": "[1]; foliar", "result": 0, "unit": "%"}, {"measurement": "inhibition at 1250 g/ha", "setting": "[2]; soil", "result": 0, "unit": "%"}, {"measurement": "inhibition at 3000 g/ha", "setting": "[3]; foliar", "result": 80, "unit": "%"}]}, {"smiles": "COc1cc(OC)nc(NC(=O)NS(=O)(=O)c2ncccc2C(F)(F)F)n1", "note": "[Flazasulfuron, 1-(4,6-dimethoxypyrimidin-2-yl)-3-(3-trifluoromethyl-2-pyridylsulfonyl)urea]", "values": [{"measurement": "inhibition at 20 g/ha", "setting": "[4]; dose 20 g/ha, foliar application, 4.5 to 5.0 leaf stage, 28th day after application", "result": 90, "unit": "%"}, {"measurement": "inhibition at 37.5 g/ha", "setting": "[4]; dose 37.5 g/ha, foliar application, 4.5 to 5.0 leaf stage, 28th day after application", "result": 92, "unit": "%"}, {"measurement": "inhibition at 25 g/ha", "setting": "[5]; dose 25 g/ha, foliar application, 3.0 to 4.2 leaf stage, Agral, 28th day after application", "result": 40, "unit": "%"}, {"measurement": "inhibition at 37.5 g/ha", "setting": "[1]; dose 37.5 g/ha, foliar application, 2.8 to 3.2 leaf stage, 28th day after application", "result": 45, "unit": "%"}, {"measurement": "inhibition at 25 g/ha", "setting": "[6]; dose 25 g/ha, soil application, 42nd day after application", "result": 70, "unit": "%"}, {"measurement": "inhibition at 37.5 g/ha", "setting": "[2]; dose 37.5 g/ha, soil application, 42nd day after application", "result": 25, "unit": "%"}, {"measurement": "inhibition at 30 g/ha", "setting": "[7]; dose 30 g/ha, foliar application, 3.0 to 4.2 leaf stage, MonFast, 28th day after application", "result": 50, "unit": "%"}, {"measurement": "inhibition at 40 g/ha", "setting": "[7]; dose 40 g/ha, foliar application, 3.0 to 4.2 leaf stage, MonFast, 28th day after application", "result": 58, "unit": "%"}, {"measurement": "inhibition at 15 g/ha", "setting": "[3]; dose 15 g/ha, foliar application, 3.8 to 4.0 leaf stage, Agral, 28th day after application", "result": 40, "unit": "%"}, {"measurement": "inhibition at 100 g/ha", "setting": "[8]; dose 100 g/ha, foliar application, 4.5 leaf stage, Agral, 28th day after application", "result": 73, "unit": "%"}]}, {"smiles": "CON(C)C(=O)Nc1ccc(Br)cc1", "note": "[Metobromuron, 3-(4-bromophenyl)-1-methoxy-1-methylurea]", "values": [{"measurement": "inhibition at 500 g/ha", "setting": "[7]; foliar", "result": 0, "unit": "%"}, {"measurement": "inhibition at 1000 g/ha", "setting": "[7]; foliar", "result": 0, "unit": "%"}, {"measurement": "inhibition at 300 g/ha", "setting": "[8]", "result": 5, "unit": "%"}]}, {"smiles": "CNC(=O)N(C)c1nnc(C(C)(C)C)s1", "note": "[Tebuthiuron, 1-(5-tertiarybutyl-1,3,4-thiadiazol-2-yl)-1,3-dimethylurea]", "values": [{"measurement": "inhibition at 500 g/ha", "setting": "[4]; foliar", "result": 15, "unit": "%"}, {"measurement": "inhibition at 500 g/ha", "setting": "[5]; foliar", "result": 0, "unit": "%"}, {"measurement": "inhibition at 500 g/ha", "setting": "[6]; soil", "result": 28, "unit": "%"}, {"measurement": "inhibition at 300 g/ha", "setting": "[8]", "result": 17, "unit": "%"}]}]}
